{
  "source": "patent US11365208B2",
  "about": "“Silylated derivatives of resveratrol and the use thereof in neurodegenerative, neurological or inflammatory diseases” (Consejo Superior De Investigaciones Cientificas, priority 2016, dated 2022)",
  "key": {"zebrafish (Danio rerio)": {"test_system": "zebrafish (Danio rerio)", "test": "PTZ-induced neurotoxicity model in zebrafish larvae, AChE activity", "type": "in vivo", "conditions": "5 dpf larvae, 10 μM, 1 h pre-treatment then 6 h with 5 mM PTZ", "method": "The objective of this assay was to analyze the protective effect of various derivatives of resveratrol in a model of neurotoxicity induced by the neurotoxin pentylenetetrazole (PTZ). As an experimental model, the zebrafish (Danio rerio) was used to study the effect of the compounds on acetylcholinesterase activity (AChE) in larvae at 5 days post-fertilization (dpf).\nZebrafish embryos were seeded in 50 ml of dilution water (AD) in a Petri dish and grown to 5 dpf (larval stage). […] Next, the larvae were transferred using a Pasteur pipette to a 24-well microplate, so that each well contained five larvae, making ten replicates per condition. First, the pre-treatment of the 5 dpf larvae was performed. For this, the larvae were incubated at 26±1° C. for 1 hour in a volume of 2 ml of AD for the two control groups (Control and Control+PTZ), of physostigmine (Phys) 20 μM, which is a commercial inhibitor of the enzyme AChE for the Phys group, and of the test compounds at a concentration of 10 μM. A medium exchange was then carried out, and the larvae were incubated with the compounds in combination with 5 mM PTZ for 6 hours at 26±1° C. After this incubation period, all of the larvae were examined, and it was determined that the general state of the larvae was totally normal, without any visible anomaly or anomalous behavior. Finally, the larvae were processed for the analysis of the AChE activity.\nIn order to determine the AChE levels, larvae processing was carried out according to the established technical study protocol once the experimental period was completed. The larvae were homogenized mechanically, and the samples were centrifuged to obtain the supernatant, which were used to determine the levels of the AChE enzyme as a function of the treatments administered. In addition, the determination of total protein of each experimental group was carried out according to the established technical study protocol. Finally, the AChE levels determined in the control group were taken as a reference measurement and deemed to be 100%."}, "RAW 264.7 macrophages": {"test_system": "RAW 264.7 macrophages", "test": "Inflammation assay: RAW macrophage viability after LPS (MTT)", "type": "cell-based", "conditions": "10 μM, LPS 100 ng/ml, 24 h, 1% DMSO", "method": "RAW 264.7 macrophages were cultured in P75 with high-glucose DMEM supplemented with penicillin/streptomycin and 10% inactivated fetal bovine serum.\nThe cell viability assays with RAW macrophages were prepared in 96-well plates by seeding 25,000 cells/well in a volume of 100 μL and incubating the cells for 4 h before the addition of the compounds. The compounds to be tested were dissolved in DMSO and added in three different concentrations (1, 10, and 100 μM) in order to determine their toxicity. The final percentage of DMSO in each well was adjusted to 1%. The cell viability was evaluated 24 h after the addition of the compounds by means of the MTT assay according to the manufacturer's method. Mean values and standard deviations were calculated from at least eight different measurements from several independent experiments.\nFor the testing of mitigation of damage caused by the addition of LPS, the RAW 264.7 macrophages were cultured according to the procedure described above. […] The cell viability was evaluated 24 h after the addition of the compounds by means of the MTT assay according to the manufacturer's method. Mean values and standard deviations were calculated from at least eight different measurements from several independent experiments."}, "[1]": {"test_system": "mouse model of multiple sclerosis", "test": "Experimental allergic encephalomyelitis (EAE) mouse model of multiple sclerosis", "type": "in vivo", "conditions": "for motor capacity: preventive regimen, 20 mg/kg intraperitoneal twice a week for 3 weeks from day 5 after induction; for clinical classification of the motor capacity: 20 mg/kg intraperitoneal twice a week for 2 weeks from day 12 after induction, especially days 20-30", "method": "Compound 15 was investigated as a possible treatment in a mouse model of multiple sclerosis. The compound resveratrol (RES) was added as a reference. An experimental allergic encephalomyelitis model, EAE, was used as an animal model of multiple sclerosis.\nIn this model, mice are injected with myelin oligodendrocyte glycoprotein (MOG, MOG35-55, is the 21 amino acid peptide corresponding to the sequence from positions 35 to 55 of the MOG glycoprotein) and virus pertussis (pertussis toxin, PTX) in order to induce the disease. Two days after induction, a new dose of the virus was given again, because some mice were not developing symptoms of EAE. Once the damage was caused, the mice were treated with RES, compound 15, or vehicle, and we studied the effect thereof on the mouse on the basis of different motor parameters on a scale from 0 normal to 4 incapable.\n• Vehicle without tween-80 emulsifier (control EAE without T) • Vehicle with tween-80 emulsifier (EAE-T control) • Preventive RES (without tween-80 emulsifier) (RES-PREV) • Therapeutic RES (no tween-80 emulsifier) (RES-TERAP) • Preventive compound 15 (with tween-80 emulsifier) (compound 15-PREV) • Therapeutic compound 15 (with tween-80 emulsifier) (compound 15-TERAP)\n(§1) The (intraperitoneal) administration of the compounds (resveratrol, compound 15, and vehicle, with or without tween-80) is started 5 days after induction. 250 μL of the compound in question (20 mg/kg) were injected twice a week and the treatment was maintained for 3 weeks. The treatment was then stopped, but the state of the mice was monitored for another 3 weeks (47 days total).\nas §1, with “started 12” for “started 5”, “for 2” for “for 3”"}, "[2]": {"test_system": "mouse model of Huntington's disease", "test": "3-nitro-propionic acid (3NP) mouse model of Huntington's disease", "type": "in vivo", "conditions": "3NP mice", "method": "Compound 15 was investigated as a possible treatment in a mouse model of Huntington's disease. The compound resveratrol (RES) was added as a reference.\nIn this model, increasing amounts of 3-nitro-propionic acid (3NP) are injected into the mice, causing lesions with a phenotype very similar to that of Huntington's disease, both mechanically and pathologically. Once the damage was caused, the mice were treated with RES, compound 15, or vehicle, and we studied the effect thereof on the mouse on the basis of different parameters. Behavioral studies (rotarod test), an assessment was made of motor capacity (tabulated on a scale of 0 normal to 4 incapable, in several parameters such as general mouse dystonia, ability to flip over, and the ability to explore), weight was monitored, and subsequent measurements were taken such as of the inhibition of pro-inflammatory cytokines in plasma or brain.\nThe design of the experiment is shown in FIG. 16. #=Behavioral study and rotarod test; ϕ Administration of the compound; W=weeks of age of the mice; D=Day of the experiment."}, "IL-6": {"test_system": "IL-6", "test": "IL-6 in supernatant of LPS-stimulated RAW macrophages (ELISA)", "type": "cell-based", "conditions": "10 μM, 24 h", "method": "(§2) To determine the production of cytokines, 5×10^5 RAW 264.7 macrophages were seeded in 24-well plates (0.5 ml per well). The compounds to be tested were then added (10 μM), and the macrophages were either stimulated or not through the addition of LPS (1 μg/ml) to the culture medium. After 24 hours, the levels of IL-6 and TNF-α were measured in the supernatants by ELISA using the capture and biotinylated antibodies from BD PharMingen and PrepoTech following known protocols. The levels of NO in the supernatants at 24 hours were measured indirectly by determining the nitrite concentration in the medium using the Griess reagent according to established protocol. A minimum of two independent experiments and three replicates per experiment were performed for each measured value. The values are expressed as the mean±standard deviation.\n(§3) In the previous assay, the levels of various inflammation parameters were measured (TNF-α, NO, and IL-6) by ELISA after treatment with RES or with some of the compounds of the invention (2, 3, 5, 6, 8, and 9)."}, "TNF-α": {"test_system": "TNF-α", "test": "TNF-α in supernatant of LPS-stimulated RAW macrophages (ELISA)", "type": "cell-based", "conditions": "10 μM, 24 h", "method": "as §2, §3"}, "[3]": {"test_system": "SH-SY5Y neuroblastoma cell line", "test": "Neuroprotection assay: SH-SY5Y viability after H2O2 damage (MTT)", "type": "cell-based", "conditions": "10 μM, H2O2 100 μM, 24 h, 1% DMSO", "method": "The SH-SY5Y neuroblastoma cell line was cultured in petri dishes pre-treated with collagen (100 ng/ml) with F12 medium supplemented with penicillin/streptomycin and 10% inactivated fetal bovine serum.\nCell viability assays with neurons were prepared in 96-well plates pre-treated with collagen by seeding 20,000 cells/well in a volume of 100 μL and incubating the cells for 24 h before the addition of the compounds. The compounds to be tested were dissolved in DMSO and added in three different concentrations (1, 10, and 100 μM) in order to determine their toxicity. The final percentage of DMSO in each well was adjusted to 1%. The cell viability was evaluated 24 h after the addition of the compounds by means of the MTT assay according to the manufacturer's method. Mean values and standard deviations were calculated from at least eight different measurements from several independent experiments.\nFor the neuroprotection assay, the neurons were cultured and seeded in the same manner as for the cell viability assay. […] The cell viability was evaluated 24 h after the addition of the compounds by means of the MTT assay according to the manufacturer's method. Mean values and standard deviations were calculated from at least eight different measurements from several independent experiments. […]"}, "NO": {"test_system": "NO", "test": "NO (nitrite, Griess reagent) in supernatant of LPS-stimulated RAW macrophages", "type": "cell-based", "conditions": "10 μM, 24 h", "method": "as §2, §3"}},
  "data": [
    {"smiles": "CC[Si](CC)(CC)Oc1cc(/C=C/c2ccc(O)cc2)cc(O[Si](CC)(CC)CC)c1", "note": "[compound 9]", "values": [
      {"measurement": "AChE activity relative to control (neuroprotective effect)", "setting": "zebrafish (Danio rerio)", "value": "significantly prevent the decrease in AChE activity induced by PTZ"}
    ]},
    {"smiles": "CCCCCCCC(=O)OCC1OC(Oc2cc(/C=C/c3ccc(O[Si](C(C)C)(C(C)C)C(C)C)cc3)cc(O[Si](C(C)C)(C(C)C)C(C)C)c2)C(O)C(O)C1O", "note": "(stereo not drawn) [compound 14, 3,4′-O-ditriisopropylsilyl-5-(-6-octanoyl)glucosyl resveratrol]", "values": [
      {"measurement": "AChE activity relative to control (neuroprotective effect)", "setting": "zebrafish (Danio rerio)", "value": "lower neuroprotective effect similar to that observed for resveratrol"}
    ]},
    {"smiles": "CC[Si](CC)(CC)Oc1ccc(/C=C/c2cc(O)cc(O[Si](CC)(CC)CC)c2)cc1", "note": "[compound 8]", "values": [
      {"measurement": "AChE activity relative to control (neuroprotective effect)", "setting": "zebrafish (Danio rerio)", "value": "lower neuroprotective effect similar to that observed for resveratrol"}
    ]},
    {"smiles": "CCCC(=O)Oc1ccc(/C=C/c2cc(O[Si](CC)(CC)CC)cc(O[Si](CC)(CC)CC)c2)cc1", "note": "[compound 17, 3,5-O-triethylsilyl-4′-butanoyl resveratrol]", "values": [
      {"measurement": "AChE activity relative to control (neuroprotective effect)", "setting": "zebrafish (Danio rerio)", "value": "lower neuroprotective effect similar to that observed for resveratrol"}
    ]},
    {"smiles": "Oc1ccc(C=Cc2cc(O)cc(O)c2)cc1", "note": "[RES, resveratrol]", "values": [
      {"measurement": "AChE activity relative to control (neuroprotective effect)", "setting": "zebrafish (Danio rerio)", "value": "lower neuroprotective effect"},
      {"measurement": "cell viability recovered", "setting": "RAW 264.7 macrophages", "value": "up to 62%"},
      {"measurement": "motor capacity", "setting": "[1]", "value": "does reduce damage on a motor level"},
      {"measurement": "clinical classification of the motor capacity", "setting": "[1]; therapeutic regimen", "value": "do not appear to improve"},
      {"measurement": "improvement of the phenotype caused by 3NP, compared with compound 15", "setting": "[2]", "value": "differences between compound 15 and RES are not great"},
      {"measurement": "IL-6 level in culture medium", "setting": "IL-6", "value": "significantly decreases"},
      {"measurement": "TNF-α level in culture medium", "setting": "TNF-α", "value": "significantly decreases"},
      {"measurement": "cell viability recovered", "setting": "[3]", "value": "up to 50%"},
      {"measurement": "NO level in culture medium", "setting": "NO", "value": "significantly decreases"}
    ]},
    {"smiles": "CCCCCCCC(=O)OCC1OC(Oc2ccc(/C=C/c3cc(O[Si](C(C)C)(C(C)C)C(C)C)cc(O[Si](C(C)C)(C(C)C)C(C)C)c3)cc2)C(O)C(O)C1O", "note": "(stereo not drawn) [compound 15, 3,5-O-ditriisopropylsilyl-4′-(6-octanoyl)glucosyl resveratrol]", "values": [
      {"measurement": "AChE activity relative to control (neuroprotective effect)", "setting": "zebrafish (Danio rerio)", "value": "significantly prevent the decrease in AChE activity induced by PTZ"},
      {"measurement": "effectiveness relative to RES on a molar dose basis", "setting": "[1]; 20 mg/kg each, dose of RES in μmol/kg about 3× dose of compound 15", "value": "much more effective"},
      {"measurement": "motor capacity", "setting": "[1]", "value": "does not have a great effect on motor capacity"},
      {"measurement": "clinical classification of the motor capacity", "setting": "[1]; therapeutic regimen", "value": "improves the clinical classification of the motor capacity of the mice compared to the control"},
      {"measurement": "clinical classification of the motor capacity after end of administration", "setting": "[1]; therapeutic regimen, days 30-47, administration interrupted", "value": "improvement in the clinical classification was maintained"},
      {"measurement": "severity of the motor lesions (motor capacity)", "setting": "[2]", "value": "decreasing the severity of the motor lesions"},
      {"measurement": "weight of the animals", "setting": "[2]", "value": "increasing the weight of the animals"},
      {"measurement": "levels of pro-inflammatory cytokines such as IL-6", "setting": "[2]; plasma", "value": "decreasing"}
    ]}
  ]
}
